Biological target: T1, AvPCP (Trichormus variabilis, UniProt Q3M7N3)
T1 sequence (Q3M7N3 1-234): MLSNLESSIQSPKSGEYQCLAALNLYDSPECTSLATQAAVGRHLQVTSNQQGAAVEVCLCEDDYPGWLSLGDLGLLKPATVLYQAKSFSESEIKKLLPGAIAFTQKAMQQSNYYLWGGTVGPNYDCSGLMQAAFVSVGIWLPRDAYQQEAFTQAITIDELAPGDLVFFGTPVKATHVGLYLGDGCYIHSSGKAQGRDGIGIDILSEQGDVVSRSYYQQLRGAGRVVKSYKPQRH
Assay: hydrolysis of murein tripeptide to Ala-γ-D-Glu and DAP
Format: biochemical
Conditions: assay details only in Supplemental Data

C[C@H](N)C(=O)N[C@H](CCC(=O)N[C@@H](CCC[C@@H](N)C(=O)O)C(=O)O)C(=O)O [Ala-γ-D-Glu-DAP]
hydrolysis of murein tripeptide to Ala-γ-D-Glu and DAP: AvPCP can, indeed, hydrolyze Ala-γ-D-Glu-DAP to Ala-γ-D-Glu and DAP

— article PMC2667786 (Structure (London, England : 1993), 2009)
